*1 amine or outer side, *2 acyl side, *3 side chain or, on linkers, in order; H or OH if unused. Where a SMILES comes first, the peptide text is derived from it. Bridges are numbered along the chain shown (N, C = ends). [ ]: non-standard residue; d: D form. The star is where a group is joined. hPhe(3,5-F2-4-CF3) = N[C@@H](CCc1cc(F)c(C(F)(F)F)c(F)c1)C(=O)O; hPhe(3-Cl-4-CF3) = N[C@@H](CCc1ccc(C(F)(F)F)c(Cl)c1)C(=O)O; X42 = Cc1ccc(C[C@@H](C(=O)[*:2])N(CCC(F)(F)F)[*:1])cc1; NPrPhe(4-CF3) = CCCN[C@@H](Cc1ccc(C(F)(F)F)cc1)C(=O)O; NMeGly(cPent) = CN[C@H](C(=O)O)C1CCCC1; Hyp = O=C(O)[C@@H]1C[C@@H](O)CN1; NEtLeu = CCN[C@@H](CC(C)C)C(=O)O; NMeD = CN[C@@H](CC(=O)O)C(=O)O; NMeL = CN[C@@H](CC(C)C)C(=O)O; Iva = CC[C@](C)(N)C(=O)O; Morpholide = C1CN(*)CCO1; NMeA = CN[C@@H](C)C(=O)O; Ac5c = NC1(C(=O)O)CCCC1; Aze = O=C(O)[C@@H]1CCN1; Ac4c = NC1(C(=O)O)CCC1; Sar = CNCC(=O)O
Columns and labels:
HRAS wild-type protein = HRAS wild-type protein (Homo sapiens, UniProt P01112); experiment: Binding to HRAS by surface plasmon resonance (SPR), KD and KD ratio to KRAS
HRAS wild-type protein, sequence (P01112 whole entry): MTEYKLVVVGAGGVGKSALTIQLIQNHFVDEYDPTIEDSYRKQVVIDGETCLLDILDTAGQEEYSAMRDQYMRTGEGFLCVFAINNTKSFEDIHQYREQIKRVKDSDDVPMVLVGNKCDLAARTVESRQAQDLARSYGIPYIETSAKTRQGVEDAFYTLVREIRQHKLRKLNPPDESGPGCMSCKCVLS
In short: (§1)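 SPR, 30°C: Avi-biotin RAS·GDP captured via Biotin CAPture (~100–300 RU); running buffer HBS pH 7.4, 1 mM DTT, 10 mM MgCl2, 0.01% Tween 20, 10 µM GDP, 4% DMSO. Single-cycle kinetics, 100 µL/min, 75 s injections; 1:1 model → KD.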

[1] = system: human lung cancer strain NCI-H441; assay type: cell-based
In short: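 Proliferation was scored by […] measured after the reagent was added to cultures kept at 37°C in 5% carbon dioxide.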

[2] = target: GDP-bound NRAS wild-type protein (Homo sapiens, UniProt P01111); experiment: Binding to NRAS by surface plasmon resonance (SPR), KD and KD ratio to KRAS
GDP-bound NRAS wild-type protein, sequence (P01111 whole entry): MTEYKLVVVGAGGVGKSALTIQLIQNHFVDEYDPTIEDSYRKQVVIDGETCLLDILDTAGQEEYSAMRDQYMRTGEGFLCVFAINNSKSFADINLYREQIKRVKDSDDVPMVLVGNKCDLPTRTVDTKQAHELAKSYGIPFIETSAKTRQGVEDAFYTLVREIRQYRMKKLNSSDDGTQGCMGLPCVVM
In short: as §1

[3] = ratio of the KD value with respect to HRAS wild-type protein to the KD value with respect to KRAS
[4] = ratio of the KD value with respect to GDP-bound NRAS wild-type protein to the KD value with respect to KRAS
[5] = ratio of KD for HRAS wild-type protein to KD for KRAS
[6] = ratio of KD for GDP-bound NRAS wild-type protein to KD for KRAS

Structure (SMILES) | IC50 [1] | HRAS /KRAS (HRAS wild-type protein; [3]) | NRAS /KRAS [2, 4] | other results
CCO[C@@H]1C[C@H]2C(=O)NC3(CCC3)C(=O)N(C)[C@@H](C3CCCC3)C(=O)N(C)[C@H](C(=O)N(C)CC)CC(=O)N(C)[C@@H](C3CC3)C(=O)N[C@@H]([C@@H](C)CC)C(=O)N(C)CC(=O)N(C)[C@H]3C/C=C\CCN(C3=O)[C@@H](Cc3ccc(C(F)(F)F)cc3)C(=O)N(C)CC(=O)N[C@@H](CCc3ccc(C(F)(F)F)c(OC)c3)C(=O)N2C1 [PP2021] | 4.9 nM | B (a compound having 3 or more and less than 10 is denoted as B) | A (a compound having 10 or more and less than 20 is denoted as A) | 
CCO[C@@H]1C[C@H]2C(=O)NC3(CCCC3)C(=O)N(C)[C@@H](C3CCCC3)C(=O)N(C)[C@H](C(=O)N(C)C)CC(=O)N(C)[C@@H](C)C(=O)N[C@@H]([C@@H](C)CC)C(=O)N(C)CC(=O)N(C)[C@H]3CCCCCN(C3=O)[C@@H](Cc3ccc(C(F)(F)F)cc3)C(=O)N(C)CC(=O)N[C@@H](CCc3cc(F)c(C(F)(F)F)c(F)c3)C(=O)N2C1 [PP0475] | 18.7 nM | B (a compound having 3 or more and less than 10 is denoted as B) | B (a compound having 3 or more and less than 10 is denoted as B) | 
CC[C@H](C)[C@@H]1NC(=O)[C@H](CC(C)C)N(C)C(=O)C[C@@H](C(=O)N2CCOCC2)N(C)C(=O)[C@H](C2CCCC2)N(C)C(=O)C2(CCCC2)NC(=O)[C@@H]2CCCN2C(=O)[C@H](CCc2ccc(C(F)(F)F)c(Cl)c2)NC(=O)CN(C)C(=O)[C@H](Cc2ccc(C)cc2)N(CCC(F)(F)F)C(=O)CN(C)C(=O)CN(C)C1=O [PP0103] ([NMeL]I[Sar][Sar][X42][Sar][hPhe(3-Cl-4-CF3)]P[Ac5c][NMeGly(cPent)][NMeD]-Morpholide; lactam N-11) | 8.2 nM |  |  | HRAS /KRAS (HRAS wild-type protein; [5]): C (A compound having a KD ratio of 0.1 or more and less than 3 is denoted as C); NRAS /KRAS [2, 6]: B (a compound having 3 or more and less than 10 is denoted as B)
CCCN1C(=O)[C@@H]2CCN2C(=O)[C@H](C)N(C)C(=O)[C@H]([C@@H](C)CC)NC(=O)[C@H](CC(C)C)N(C)C(=O)C[C@@H](C(=O)N(C)C)NC(=O)[C@H](C2CCCC2)N(C)C(=O)C2(CCC2)NC(=O)[C@@H]2C[C@@H](OCC)CN2C(=O)[C@H](CCc2ccc(C(F)(F)F)c(Cl)c2)NC(=O)CN(C)C(=O)[C@@H]1Cc1ccc(C(F)(F)F)cc1 [PP0384] ([NMeL]I[NMeA][Aze][NPrPhe(4-CF3)][Sar][hPhe(3-Cl-4-CF3)][Hyp](Et)[Ac4c][NMeGly(cPent)]D-NMe2; lactam N-11) | 7 nM |  |  | HRAS /KRAS (HRAS wild-type protein; [5]): B (a compound having 3 or more and less than 10 is denoted as B); NRAS /KRAS [2, 6]: C (A compound having a KD ratio of 0.1 or more and less than 3 is denoted as C)
CCO[C@@H]1C[C@H]2C(=O)NC3(CC(C)(C)C3)C(=O)N(C)[C@@H](C3CCCC3)C(=O)N(C)[C@H](C(=O)N(C)C)CC(=O)N(C)[C@@H](CC3CCC3)C(=O)N[C@@H]([C@@H](C)CC)C(=O)N(C)CC(=O)N(C)[C@H]3C/C=C\CCN(C3=O)[C@@H](Cc3ccc(C(F)(F)F)cc3)C(=O)N(C)CC(=O)N[C@@H](CCc3cc(F)c(C(F)(F)F)c(F)c3)C(=O)N2C1 [PP1651] | 2.3 nM |  |  | HRAS /KRAS (HRAS wild-type protein; ratio of KD value for HRAS wild-type protein to KD value for KRAS (SPR)): B (a compound having 3 or more and less than 10 is denoted as B); NRAS /KRAS ([2]; ratio of KD value for GDP-bound NRAS wild-type protein to KD value for KRAS (SPR)): A (a compound having 10 or more and less than 20 is denoted as A)
CC[C@H](C)[C@@H]1NC(=O)[C@H](CC(C)C)N(C)C(=O)C[C@@H](C(=O)N2CCOCC2)N(C)C(=O)[C@H](C2CCCC2)N(C)C(=O)C2(CC(F)(F)C2)NC(=O)[C@@H]2CCCN2C(=O)[C@H](CCc2cc(F)c(C(F)(F)F)c(F)c2)NC(=O)CN(C)C(=O)[C@H](Cc2ccc(C(F)(F)F)cc2)N2CCCCC[C@@H](C2=O)N(C)C(=O)CN(C)C1=O [PP0499] | 44.9 nM | B (a compound having 3 or more and less than 10 is denoted as B) | B (a compound having 3 or more and less than 10 is denoted as B) | 
CCC[C@H]1C(=O)N[C@@H]([C@@H](C)CC)C(=O)N(C)CC(=O)N(C)[C@H]2C/C=C\CCN(C2=O)[C@@H](Cc2ccc(C(F)(F)F)cc2)C(=O)N(C)CC(=O)N[C@@H](CCc2cc(F)c(C(F)(F)F)c(F)c2)C(=O)N2C[C@H](OCC)C[C@H]2C(=O)N(C)C2(CCC2)C(=O)N(C)[C@@H](C2CCCC2)C(=O)N(C)[C@H](C(=O)N2CCCCC2)CC(=O)N1C [PP3118] | 6.7 nM |  |  | HRAS /KRAS (HRAS wild-type protein; [5]): B (a compound having 3 or more and less than 10 is denoted as B); NRAS /KRAS [2, 6]: A (a compound having 10 or more and less than 20 is denoted as A)
CCO[C@@H]1C[C@H]2C(=O)NC3(CCC3)C(=O)N(C)[C@@H](C3CCCC3)C(=O)N(C)[C@H](C(=O)N3CCOCC3)CC(=O)N(C)[C@@H](COC)C(=O)N[C@@H]([C@@H](C)CC)C(=O)N(C)CC(=O)N(C)[C@H]3CCCCN(C3=O)[C@@H](Cc3ccc(C(F)(F)F)cc3)C(=O)N(C)CC(=O)N[C@@H](CCc3cc(F)c(C(F)(F)F)c(F)c3)C(=O)N2C1 [PP0719] | 8.5 nM | B (a compound having 3 or more and less than 10 is denoted as B) | C (A compound having a KD ratio of 0.1 or more and less than 3 is denoted as C) | 

Further compounds by falling IC50 [1], results first:

IC50 [1] | Structure (SMILES) | HRAS /KRAS (HRAS wild-type protein; [3]) | NRAS /KRAS [2, 4] | other results
134 nM | CCO[C@@H]1C[C@H]2C(=O)NC3(CCC3)C(=O)N(C)[C@@H](C3CCCC3)C(=O)N(C)[C@H](C(=O)N(C)CCOC)CC(=O)N(C)[C@@H](CC3CC3)C(=O)N[C@@H]([C@@H](C)CC)C(=O)N(C)CC(=O)N(C)[C@H]3C/C=C\CCN(C3=O)[C@@H](Cc3ccc(C(F)(F)F)cc3)C(=O)N(C)CC(=O)N[C@@H](CCc3ccc4sccc4c3)C(=O)N2C1 [PP1328] |  |  | HRAS /KRAS (HRAS wild-type protein; ratio of KD with respect to HRAS wild-type protein to KD with respect to KRAS): A (a compound having 10 or more and less than 20 is denoted as A); NRAS /KRAS ([2]; ratio of KD with respect to GDP-bound NRAS wild-type protein to KD with respect to KRAS): A (a compound having 10 or more and less than 20 is denoted as A)
77.2 nM | CCC[C@H]1C(=O)N[C@@H]([C@@H](C)CC)C(=O)N(C)CC(=O)N(C)[C@H]2C/C=C\CCN(C2=O)[C@@H](CC2CCC(F)(F)CC2)C(=O)N(C)CC(=O)N[C@@H](CCc2ccc(C(F)(F)F)c(OC)c2)C(=O)N2C[C@H](OCC)C[C@H]2C(=O)N(C)C2(CCC2)C(=O)N(C)[C@@H](C(CC)CC)C(=O)N(C)[C@H](C(=O)N(C)C)CC(=O)N1C [PP2345] | A (a compound having 10 or more and less than 20 is denoted as A) | A (a compound having 10 or more and less than 20 is denoted as A) | 
60.6 nM | CC[C@@H]1C[C@H]2C(=O)NC3(CCCC3)C(=O)N(C)[C@@H](C3CCCC3)C(=O)N(C)[C@H](C(=O)N(C)CC)CC(=O)N(C)[C@@H](C)C(=O)N[C@@H]([C@@H](C)CC)C(=O)N(C)CC(=O)N(C)[C@H]3C/C=C\CCN(C3=O)[C@@H](Cc3ccc(C(F)(F)F)cc3)C(=O)N(C)CC(=O)N[C@@H](CCc3cc(F)c(C(F)(F)F)c(F)c3)C(=O)N2C1 [PP2271] | A (a compound having 10 or more and less than 20 is denoted as A) | A (a compound having 10 or more and less than 20 is denoted as A) | 
40.3 nM | CCO[C@@H]1C[C@H]2C(=O)NC3(CC(C)(C)C3)C(=O)N(C)[C@@H](C(CC)CC)C(=O)N(C)[C@H](C(=O)N(C)C)CC(=O)N(C)[C@@H](C(C)C)C(=O)N[C@@H]([C@@H](C)CC)C(=O)N(C)CC(=O)N(C)[C@H]3C/C=C\CCN(C3=O)[C@@H](Cc3ccc(C(F)(F)F)cc3)C(=O)N(C)CC(=O)N[C@@H](CCc3ccc(Cl)c(Cl)c3)C(=O)N2C1 [PP2181] | A (a compound having 10 or more and less than 20 is denoted as A) | AA (a compound having 20 or more is denoted as AA) | 
28.8 nM | CCCN1C(=O)[C@@H]2CCN2C(=O)CN(C)C(=O)[C@H]([C@@H](C)CC)NC(=O)[C@H](CC(C)C)N(C)C(=O)C[C@@H](C(=O)N2CCOCC2)N(C)C(=O)[C@H](C2CCCC2)N(C)C(=O)[C@](C)(CC)NC(=O)[C@@H]2CCCN2C(=O)[C@H](CCc2cc(F)c(C(F)(F)F)c(F)c2)NC(=O)CN(C)C(=O)[C@@H]1Cc1ccc(C(F)(F)F)cc1 [PP0790] ([NMeL]I[Sar][Aze][NPrPhe(4-CF3)][Sar][hPhe(3,5-F2-4-CF3)]P[Iva][NMeGly(cPent)][NMeD]-Morpholide; lactam N-11) |  |  | HRAS /KRAS (HRAS wild-type protein; [5]): B (a compound having 3 or more and less than 10 is denoted as B); NRAS /KRAS [2, 6]: C (A compound having a KD ratio of 0.1 or more and less than 3 is denoted as C)
26.5 nM | CC[C@H](C)[C@@H]1NC(=O)[C@H](CC)N(C)C(=O)C[C@@H](C(=O)N(C)C)N(C)C(=O)[C@H](C2CCCC2)N(C)C(=O)C2(CCC2)NC(=O)[C@@H]2C[C@@H](N3CCC(F)(F)CC3)CN2C(=O)[C@H](CCc2cc(F)c(C(F)(F)F)c(F)c2)NC(=O)CN(C)C(=O)[C@H](Cc2ccc(C(F)(F)F)cc2)N2CCCC[C@@H](C2=O)N(C)C(=O)CN(C)C1=O [PP0656] | C (A compound having a KD ratio of 0.1 or more and less than 3 is denoted as C) | C (A compound having a KD ratio of 0.1 or more and less than 3 is denoted as C) | 
15.2 nM | CCCN1C(=O)CN(C)C(=O)CN(C)C(=O)[C@H]([C@@H](C)CC)NC(=O)[C@H](CC(C)C)N(CC)C(=O)C[C@@H](C(=O)N2CCOCC2)N(C)C(=O)[C@H](C2CCCC2)N(C)C(=O)C2(CCC2)NC(=O)[C@@H]2CCCN2C(=O)[C@H](CCc2ccc(C(F)(F)F)c(Cl)c2)NC(=O)CN(C)C(=O)[C@@H]1Cc1ccc(C(F)(F)F)cc1 [PP1946] ([NEtLeu]I[Sar][Sar][NPrPhe(4-CF3)][Sar][hPhe(3-Cl-4-CF3)]P[Ac4c][NMeGly(cPent)][NMeD]-Morpholide; lactam N-11) | C (A compound having a KD ratio of 0.1 or more and less than 3 is denoted as C) | B (a compound having 3 or more and less than 10 is denoted as B) | 
